Laboratory results published in patent US20090075935A1, “COMPOSITION COMPRISING AT LEAST ONE C-GLYCOSIDE DERIVATIVE AND AT LEAST ONE HYALURONIC ACID AND ITS COSMETIC USE” (L'OREAL, priority 2006, published 2009).

System: keratinocyte transglutaminase (TGk)
Test: Assaying of keratinocyte transglutaminase (TGk) activity in mitomycin-pretreated NHEKs in deficient medium (radiochemical assay)
Format: cell-based, human
Design: key to Significant variation relative to the control: NS = not significant
Conditions: for % Activity relative to the control / Significant variation relative to the control: TGk activity, medium with mitomycin, depleted medium, 96 hours
From the text: For this, normal human epidermal keratinocytes (NHEKs), pretreated with mitomycin so as to prevent proliferation thereof, in a deficient medium made up of 40% of depleted SFM medium and 60% of Earle's balanced salt solution (EBSS) buffer were placed in culture. The metabolism of these cells having been thus slowed down, their ability to differentiate is then quantified by assaying, using a standard radiochemical assay, the keratinocyte transglutaminase activity (TGk) of the NHEKs pretreated with the active agents. […] Normal human keratinocytes were cultured at 37° C. and 5% CO2 for 24 h in complete SFM medium. The cell divisions were then blocked by treatment with mitomycin C (10 μg/ml) for 2 hours at 37° C. and 5% CO2. The cells were then incubated for 96 hours in deficient or nondeficient (control) medium containing or not containing various concentrations of the test or reference products. […] The treatments were carried out in triplicate (n=3). At the end of the incubation, the TGk membrane enzyme was extracted in the presence of Triton X-100 and the TGk activity was determined by measuring the covalent addition of tritiated putrescine, at a final concentration of 2 μCi/ml, to caseine (acceptor protein, 2 mg/ml final concentration). The caseine was precipitated by addition of trichloroacetic acid (TCA) and the precipitates were recovered on filters and a collector and then the dry filters were counted by liquid scintillation.

[Ca+2].[Cl-].[Cl-] [CaCl2, Calcium chloride, reference compound]
effect on the TGk activity of the keratinocytes (1.5 mM): clearly increased the TGk activity | % Activity relative to the control (1.5 mM): 557% | Significant variation relative to the control (1.5 mM): +457%

Hyaluronic acid
% Activity relative to the control (0.02%): 88% | Significant variation relative to the control (0.02%): NS | effect on the keratinocyte transglutaminase activity (tested alone at 0.02%): no effect

CC(O)CO (stereo not drawn) [1,2-propanediol]
% Activity relative to the control (0.16%): 87% | Significant variation relative to the control (0.16%): NS | effect on the TGk activity (tested at 0.8%): did not modify the activity

CC(O)C[C@@H]1OC[C@@H](O)[C@H](O)[C@H]1O (stereo partly drawn) [C-β-D-xylopyranoside-2-hydroxypropane]
% Activity relative to the control (0.06%): 128% | Significant variation relative to the control (0.06%): NS | effect on the TGk activity (tested at 0.06%): no significant effect
